Columns and labels:
Type in all cases: functional
Escherichia coli [1] = experiment: Compound was tested in vitro for antimicrobial activity against Escherichia coli NCTC 10418
Escherichia coli [2] = experiment: Compound was tested in vitro for antimicrobial activity against Escherichia coli DC2: cell wall deficient mutant strain
Pseudomonas aeruginosa [3] = experiment: Compound was tested in vitro for antimicrobial activity against Pseudomonas aeruginosa K799
Escherichia coli [4] = experiment: Compound was tested in vitro for antimicrobial activity against Escherichia coli DC0
Providencia stuartii = experiment: Compound was tested in vitro for antimicrobial activity against Providencia stuartii T90
Pseudomonas aeruginosa [5] = experiment: Compound was tested in vitro for antimicrobial activity against Pseudomonas aeruginosa Dagleish: beta-lactamase producer
Proteus mirabilis = experiment: Compound was tested in vitro for antimicrobial activity against Proteus mirabilis 977
Pseudomonas aeruginosa [6] = experiment: Compound was tested in vitro for antimicrobial activity against Pseudomonas aeruginosa NCTC 10662

C[C@@H](O)[C@H]1C(=O)N2C(C(=O)[O-])=C(COC(=O)c3ccc(O)c(O)c3)S[C@H]12.[Na+]
MIC (Escherichia coli [1]): 0.5 µg/mL | MIC (Escherichia coli [2]): 0.12 µg/mL | MIC (Pseudomonas aeruginosa [3]): > 64 µg/mL | MIC (Escherichia coli [4]): 1 µg/mL | MIC (Providencia stuartii): 32 µg/mL | MIC (Pseudomonas aeruginosa [5]): > 64 µg/mL | MIC (Proteus mirabilis): 32 µg/mL | MIC (Pseudomonas aeruginosa [6]): 32 µg/mL

C[C@@H](O)[C@H]1C(=O)N2C(C(=O)[O-])=C(CO)S[C@H]12.[Na+]
MIC (Escherichia coli [1]): 8 µg/mL | MIC (Escherichia coli [2]): 8 µg/mL | MIC (Pseudomonas aeruginosa [3]): 64 µg/mL | MIC (Escherichia coli [4]): 8 µg/mL | MIC (Providencia stuartii): 16 µg/mL | MIC (Pseudomonas aeruginosa [5]): 64 µg/mL | MIC (Proteus mirabilis): 16 µg/mL | MIC (Pseudomonas aeruginosa [6]): 64 µg/mL

O=C([O-])C1=C(CO)S[C@@H]2CC(=O)N12.[Na+]
MIC (Escherichia coli [1]): 16 µg/mL | MIC (Escherichia coli [2]): 32 µg/mL | MIC (Pseudomonas aeruginosa [3]): > 64 µg/mL | MIC (Escherichia coli [4]): 32 µg/mL | MIC (Providencia stuartii): 32 µg/mL | MIC (Pseudomonas aeruginosa [5]): > 64 µg/mL | MIC (Proteus mirabilis): 32 µg/mL | MIC (Pseudomonas aeruginosa [6]): > 64 µg/mL

CC(=O)Oc1cccc(C(=O)OCC2=C(C(=O)[O-])N3C(=O)C[C@H]3S2)c1OC(C)=O.[Na+]
MIC (Escherichia coli [1]): 8 µg/mL | MIC (Escherichia coli [2]): 0.5 µg/mL | MIC (Pseudomonas aeruginosa [3]): > 32 µg/mL | MIC (Escherichia coli [4]): > 32 µg/mL | MIC (Providencia stuartii): > 32 µg/mL | MIC (Pseudomonas aeruginosa [5]): > 32 µg/mL | MIC (Proteus mirabilis): 16 µg/mL | MIC (Pseudomonas aeruginosa [6]): 8 µg/mL
